From ChEMBL document CHEMBL1201862, “PubChem BioAssay data set” (2004)
The source made the active and inactive calls.

Key:
[1] = target: T1, Eukaryotic translation initiation factor 2-alpha kinase 3 (Homo sapiens, UniProt Q9NZJ5); test: Counterscreen assay for PERK inhibitors: Dose response cell-based high throughput screening assay to measure inhibition of PERK at 6 hours. [Related pubchem assays: 1522, 1416 ]; format: functional
[2] = target: T1, Eukaryotic translation initiation factor 2-alpha kinase 3; test: Dose response cell-based high-throughput screening assay to measure PERK inhibition. [Related pubchem assays: 1416 ]; format: functional
Streptococcus = test: GAS UMAA2166 growth inhibition – luminescence, BacTiterGlo, counter-screen for streptokinase expression inhibitor project, dose response (AID 1915); format: functional, organism-based;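 note: potency for reduction of bacterial viability or growth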
Streptokinase A = target: T2, Streptokinase A (Streptococcus pyogenes serotype M1, UniProt P10520); test: viability-normalized secreted streptokinase activity reduction – plasminogen activation absorbance, OD405, dose response (AID 1914); format: functional, Streptococcus pyogenes M1 GAS;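 note: secreted streptokinase activity via plasminogen activation per viability signal from cell pellet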
T2 sequence (P10520 whole entry): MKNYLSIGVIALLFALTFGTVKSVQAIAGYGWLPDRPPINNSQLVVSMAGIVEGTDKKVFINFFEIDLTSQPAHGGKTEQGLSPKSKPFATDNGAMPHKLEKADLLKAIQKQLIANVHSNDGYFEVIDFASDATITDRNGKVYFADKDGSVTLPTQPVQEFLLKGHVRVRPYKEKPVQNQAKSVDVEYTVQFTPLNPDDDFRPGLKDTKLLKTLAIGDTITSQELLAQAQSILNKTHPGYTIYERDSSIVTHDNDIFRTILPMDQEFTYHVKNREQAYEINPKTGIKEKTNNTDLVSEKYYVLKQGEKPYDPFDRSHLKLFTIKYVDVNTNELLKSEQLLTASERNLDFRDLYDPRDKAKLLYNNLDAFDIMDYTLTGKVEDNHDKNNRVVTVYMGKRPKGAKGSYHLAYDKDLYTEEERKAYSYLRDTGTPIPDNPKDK

[3] = HCT116 cell viability decrease, GSK3B pretreatment – CellTiter-Glo, IC50, dose response (AID 1117339); format: functional; details: HCT-116
Vero = test: viability of Vero cells under compound – cytotoxicity control for flavivirus capping enzyme inhibitors (AID 588742); format: functional; details: Chlorocebus sabaeus
[4] = CellTiter-Glo luminescence survival assay, SW480 colon tumor line, concentration-response curve, half-maximal inhibitory concentration (AID 1117338); format: functional
[5] = Reduced DLD-1 viability, concentration-response, CellTiter-Glo luminescence (AID 1117352); format: functional
[6] = microbe, parasite or virus in culture; format: functional; details: Mycobacterium tuberculosis
Oxytocin receptor = Oxytocin receptor (Homo sapiens, UniProt P30559); test: Fluorescence-based cell-based high throughput dose response assay for agonists of the Oxytocin Receptor (OXTR). [Related pubchem assays: 2435 (Primary screen (OXTR agonists in singlicate)), 434991 (Counterscreen (V1R agonists in triplicate)), 2482 (Summary (OXTR agonists)), 434963 (Confirmation screen (OXTR agonists in triplicate))]; format: functional
Sequence of Oxytocin receptor (P30559 whole entry): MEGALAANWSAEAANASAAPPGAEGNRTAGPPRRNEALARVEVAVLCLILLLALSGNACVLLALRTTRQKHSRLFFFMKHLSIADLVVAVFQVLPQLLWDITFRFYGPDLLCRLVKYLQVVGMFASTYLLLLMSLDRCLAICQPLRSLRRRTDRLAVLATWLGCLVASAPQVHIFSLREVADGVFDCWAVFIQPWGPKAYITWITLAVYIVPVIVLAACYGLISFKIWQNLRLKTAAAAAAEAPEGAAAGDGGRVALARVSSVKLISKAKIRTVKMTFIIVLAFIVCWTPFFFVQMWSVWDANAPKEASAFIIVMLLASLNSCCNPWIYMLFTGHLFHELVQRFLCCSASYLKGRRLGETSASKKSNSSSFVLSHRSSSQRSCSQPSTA

[7] = Potency on glucagon-like peptide 1 release, dose-response in NCI-H716 cell line, half maximal inhibitory concentration (AID 1117344); format: functional, cell-based
Vasopressin V1a receptor = Vasopressin V1a receptor (Homo sapiens, UniProt P37288); test: Counterscreen for Oxytocin Receptor (OXTR) agonists: Fluorescence-based cell-based high throughput dose response assay to identify agonists of the vasopressin 1 receptor (V1R). [Related pubchem assays: 2435 (Primary screen (OXTR agonists in singlicate)), 434991 (Counterscreen (V1R agonists in triplicate)), 2482 (Summary (OXTR agonists)) …; format: functional
Sequence of Vasopressin V1a receptor (P37288 whole entry): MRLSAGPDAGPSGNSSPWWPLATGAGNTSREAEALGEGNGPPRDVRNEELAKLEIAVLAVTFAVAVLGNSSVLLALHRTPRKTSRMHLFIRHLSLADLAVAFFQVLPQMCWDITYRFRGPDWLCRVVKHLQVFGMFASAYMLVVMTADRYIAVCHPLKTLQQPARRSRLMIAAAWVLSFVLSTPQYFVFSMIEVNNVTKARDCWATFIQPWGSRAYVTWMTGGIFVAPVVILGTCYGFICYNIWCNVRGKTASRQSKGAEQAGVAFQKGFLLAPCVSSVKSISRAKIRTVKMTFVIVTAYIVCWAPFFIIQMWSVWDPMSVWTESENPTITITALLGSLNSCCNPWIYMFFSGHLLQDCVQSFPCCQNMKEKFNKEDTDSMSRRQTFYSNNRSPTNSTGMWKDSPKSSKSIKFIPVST

[8] = tested on: Streptococcus sp. 'group A'; test: Streptococcus pyogenes SK(-)GAS viability under kanamycin – luminescence, BacTiterGlo, confirmation, counter-screen for streptokinase expression inhibitor project, dose response (AID 1900); format: functional, organism-based
[9] = target: Heat shock protein HSP 90-alpha (Homo sapiens, UniProt P07900); format: functional, organism-based
[10] = glucagon-like peptide-1 release potency in STC-1, concentration-response, half-maximal inhibitory concentration in the STC-1 line (AID 1117345); format: functional, cell-based
Protein RecA = target: T3, Protein RecA (Mycobacterium tuberculosis, UniProt P9WHJ3); test: Fluorescence Cell-Free Homogeneous Dose Retest to Identify Inhibitors of RecA-Intein Splicing Activity. [Related pubchem assays (depositor defined):AID2097, AID2223, AID489010, AID492950]; format: functional
T3 sequence (P9WHJ3 whole entry): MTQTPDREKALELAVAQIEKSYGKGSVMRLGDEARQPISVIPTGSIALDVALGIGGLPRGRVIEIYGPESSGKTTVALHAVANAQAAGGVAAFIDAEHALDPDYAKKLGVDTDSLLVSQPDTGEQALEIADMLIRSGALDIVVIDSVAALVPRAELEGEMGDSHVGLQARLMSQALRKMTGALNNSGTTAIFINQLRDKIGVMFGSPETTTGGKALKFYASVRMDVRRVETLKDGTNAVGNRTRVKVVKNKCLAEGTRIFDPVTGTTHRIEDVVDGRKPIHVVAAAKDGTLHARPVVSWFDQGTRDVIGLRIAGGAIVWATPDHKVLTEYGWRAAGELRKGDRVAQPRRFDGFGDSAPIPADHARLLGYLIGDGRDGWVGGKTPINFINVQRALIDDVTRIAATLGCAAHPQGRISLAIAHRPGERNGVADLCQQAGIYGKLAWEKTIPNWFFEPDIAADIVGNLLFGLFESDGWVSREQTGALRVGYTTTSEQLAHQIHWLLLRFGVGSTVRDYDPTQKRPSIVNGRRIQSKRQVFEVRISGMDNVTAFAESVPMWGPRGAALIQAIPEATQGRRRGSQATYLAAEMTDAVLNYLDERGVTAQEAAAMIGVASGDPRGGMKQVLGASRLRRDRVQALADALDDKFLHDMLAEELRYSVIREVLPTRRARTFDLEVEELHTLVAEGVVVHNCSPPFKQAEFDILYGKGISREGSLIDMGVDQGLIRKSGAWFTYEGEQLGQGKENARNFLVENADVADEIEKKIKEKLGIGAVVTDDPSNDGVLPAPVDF

[11] = target: T4, Replicative DNA helicase DnaB (Mycobacterium tuberculosis, UniProt P9WMR3); test: DnaB intein splicing inhibitors, dose response, biochemical, cell-free fluorescence (AID 449749); format: functional
T4 sequence (P9WMR3 whole entry): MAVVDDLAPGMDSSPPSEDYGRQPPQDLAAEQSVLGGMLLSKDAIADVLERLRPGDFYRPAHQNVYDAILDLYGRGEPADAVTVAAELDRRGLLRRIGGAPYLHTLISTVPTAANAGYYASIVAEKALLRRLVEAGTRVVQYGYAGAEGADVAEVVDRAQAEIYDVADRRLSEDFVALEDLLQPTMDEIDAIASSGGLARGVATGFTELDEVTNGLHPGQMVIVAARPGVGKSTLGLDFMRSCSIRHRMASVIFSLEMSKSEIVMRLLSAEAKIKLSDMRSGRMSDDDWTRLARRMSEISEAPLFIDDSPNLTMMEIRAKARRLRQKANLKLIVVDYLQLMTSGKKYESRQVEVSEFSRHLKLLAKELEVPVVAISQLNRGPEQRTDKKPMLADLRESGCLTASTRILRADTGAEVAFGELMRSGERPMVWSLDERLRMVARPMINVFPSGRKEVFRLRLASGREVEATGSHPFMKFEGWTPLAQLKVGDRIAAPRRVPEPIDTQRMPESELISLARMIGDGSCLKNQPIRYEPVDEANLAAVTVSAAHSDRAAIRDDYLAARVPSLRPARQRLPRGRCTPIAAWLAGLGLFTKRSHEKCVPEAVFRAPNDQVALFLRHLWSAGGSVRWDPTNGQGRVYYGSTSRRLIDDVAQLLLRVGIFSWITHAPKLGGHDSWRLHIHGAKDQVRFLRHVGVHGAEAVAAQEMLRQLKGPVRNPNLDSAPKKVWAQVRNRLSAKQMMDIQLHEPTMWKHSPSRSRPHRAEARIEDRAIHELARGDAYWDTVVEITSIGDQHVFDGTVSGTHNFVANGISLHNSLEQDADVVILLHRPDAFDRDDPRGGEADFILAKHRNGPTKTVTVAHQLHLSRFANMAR

[12] = cytotoxicity toward HCT116 cells – cell-based, CellTiter-Glo luminescence, IC50, dose response (AID 1117332); format: functional; details: HCT-116
[13] = RKO cell viability reduction, dose response, CellTiter-Glo luminescence (AID 1117322); format: functional
[14] = target: T5, DNA repair protein RAD52 homolog (Homo sapiens, UniProt P43351); format: functional, biochemical
T5 sequence (P43351 whole entry): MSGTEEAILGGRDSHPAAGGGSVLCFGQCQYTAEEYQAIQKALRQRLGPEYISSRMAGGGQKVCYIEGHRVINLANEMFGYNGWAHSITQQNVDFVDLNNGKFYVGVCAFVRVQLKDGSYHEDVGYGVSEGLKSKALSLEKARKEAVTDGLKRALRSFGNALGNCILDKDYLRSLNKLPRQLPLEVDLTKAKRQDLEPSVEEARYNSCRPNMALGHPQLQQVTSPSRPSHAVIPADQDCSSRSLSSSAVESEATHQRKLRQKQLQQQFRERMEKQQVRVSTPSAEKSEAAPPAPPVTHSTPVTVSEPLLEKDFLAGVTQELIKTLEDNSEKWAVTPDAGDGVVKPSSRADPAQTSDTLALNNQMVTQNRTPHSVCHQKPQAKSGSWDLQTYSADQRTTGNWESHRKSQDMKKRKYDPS

[15] = SNU-C1 cell viability reduction, dose response, CellTiter-Glo luminescence (AID 1117323); format: functional, cell-based
[16] = cytotoxicity toward HT-29 cells – cell-based, CellTiter-Glo luminescence, IC50, dose response (AID 1117330); format: functional
[17] = cytotoxicity toward Colo320 cells – cell-based, CellTiter-Glo luminescence, IC50, dose response (AID 1117334); format: functional; details: COLO 320
INS1 = test: INS-1E survival protection against cytokine death – cell-based, luminescence, retest, dose response (AID 449756); format: functional; details: Rattus norvegicus;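 note: cell death triggered by IL-1 beta plus TNF-alpha plus IFN-gamma mixture; protective hits raise ATP signal compared with cytokine alone wells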
[18] = target: Neuropeptides B/W receptor type 1 (Homo sapiens, UniProt P48145); test: Fluorescence-based dose response cell-based high throughput screening assay to identify antagonists of the G-protein coupled receptor 7 (GPR7). [Related pubchem assays: 1952 (Screening assay (GPR7 antagonists).), 1880 (Summary AID.)]; format: functional
Sequence of Neuropeptides B/W receptor type 1 (P48145 whole entry): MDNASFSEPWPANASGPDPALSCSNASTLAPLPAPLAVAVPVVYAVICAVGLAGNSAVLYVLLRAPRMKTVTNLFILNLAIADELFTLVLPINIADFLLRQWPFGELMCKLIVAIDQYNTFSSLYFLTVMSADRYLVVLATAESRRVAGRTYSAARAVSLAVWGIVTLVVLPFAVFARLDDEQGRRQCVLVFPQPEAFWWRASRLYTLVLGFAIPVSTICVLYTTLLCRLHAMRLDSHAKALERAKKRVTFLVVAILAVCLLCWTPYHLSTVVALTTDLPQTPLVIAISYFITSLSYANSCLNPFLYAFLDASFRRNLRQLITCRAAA

[19] = target: Melanin-concentrating hormone receptor 1 (Homo sapiens, UniProt Q99705); test: Fluorescence-based counterscreen for antagonists of the G-protein coupled receptor 7 (GPR7): cell-based high throughput dose response assay to identify antagonists of the melanin-concentrating hormone receptor 1 (MCHR1).; format: functional
Sequence of Melanin-concentrating hormone receptor 1 (Q99705 whole entry): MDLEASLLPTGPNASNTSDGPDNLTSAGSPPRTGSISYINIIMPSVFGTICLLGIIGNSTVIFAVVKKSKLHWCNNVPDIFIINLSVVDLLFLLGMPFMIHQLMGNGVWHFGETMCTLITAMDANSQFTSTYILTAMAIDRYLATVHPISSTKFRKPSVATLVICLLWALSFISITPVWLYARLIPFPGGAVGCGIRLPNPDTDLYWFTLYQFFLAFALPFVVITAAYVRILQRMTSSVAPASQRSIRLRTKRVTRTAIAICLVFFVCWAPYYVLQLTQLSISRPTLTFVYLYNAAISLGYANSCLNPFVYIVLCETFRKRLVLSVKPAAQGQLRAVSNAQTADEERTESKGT

T1 sequence (Q9NZJ5 whole entry): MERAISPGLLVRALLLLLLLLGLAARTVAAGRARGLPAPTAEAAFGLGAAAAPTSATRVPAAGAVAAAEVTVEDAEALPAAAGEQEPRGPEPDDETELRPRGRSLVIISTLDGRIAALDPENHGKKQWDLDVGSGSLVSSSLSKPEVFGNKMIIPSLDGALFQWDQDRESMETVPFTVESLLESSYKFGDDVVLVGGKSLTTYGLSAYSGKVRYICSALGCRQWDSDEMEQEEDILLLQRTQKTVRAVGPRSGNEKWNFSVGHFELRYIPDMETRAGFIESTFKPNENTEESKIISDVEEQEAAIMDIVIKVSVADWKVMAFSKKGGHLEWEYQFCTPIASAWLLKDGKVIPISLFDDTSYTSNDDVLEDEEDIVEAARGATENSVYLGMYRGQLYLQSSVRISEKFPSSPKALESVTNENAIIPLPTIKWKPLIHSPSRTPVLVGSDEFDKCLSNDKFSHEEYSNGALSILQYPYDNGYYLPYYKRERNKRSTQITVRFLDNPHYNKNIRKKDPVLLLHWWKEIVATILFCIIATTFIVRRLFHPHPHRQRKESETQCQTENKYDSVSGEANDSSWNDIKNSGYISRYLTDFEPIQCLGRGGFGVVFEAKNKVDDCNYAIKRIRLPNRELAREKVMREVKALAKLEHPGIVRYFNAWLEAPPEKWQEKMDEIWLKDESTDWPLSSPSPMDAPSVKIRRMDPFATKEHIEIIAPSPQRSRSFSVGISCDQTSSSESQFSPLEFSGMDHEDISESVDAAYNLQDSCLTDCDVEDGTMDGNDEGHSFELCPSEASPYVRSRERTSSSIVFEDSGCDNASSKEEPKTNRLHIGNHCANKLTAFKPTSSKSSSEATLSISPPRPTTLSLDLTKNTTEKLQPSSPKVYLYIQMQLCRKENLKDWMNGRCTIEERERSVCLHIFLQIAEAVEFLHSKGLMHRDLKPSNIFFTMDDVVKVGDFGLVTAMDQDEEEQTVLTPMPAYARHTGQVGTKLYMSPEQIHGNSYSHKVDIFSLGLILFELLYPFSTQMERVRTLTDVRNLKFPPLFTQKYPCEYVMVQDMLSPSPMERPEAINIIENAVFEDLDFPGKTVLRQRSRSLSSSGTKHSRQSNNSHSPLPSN

SMILES: Cc1c(O)n2c(nc1=O)sc1ccccc12
- EC50 [1]: > 55.7 µM (not active)
- EC50 [2]: > 55.7 µM (not active)

SMILES: CCCCCCCCCCCCCCCC[N+](C)(C)CC
- EC50 (Streptococcus): 8.57 µM (active)
- EC50 (Streptokinase A): 23.2 µM (inconclusive)
- IC50 [3]: 2.68 µM (active)
- CC50 (Vero): 32.7 µM (active)
- IC50 [4]: 1.24 µM (active)
- IC50 [5]: 0.74 µM (active)
- CC50 [6]: 34.8 µM (active)
- EC50 (Oxytocin receptor): > 29.9 µM (not active)
- IC50 [7]: 11.7 µM (inactive)
- EC50 (Vasopressin V1a receptor): > 3.32 µM (active)
- EC50 [8]: 1.3 µM (active)
- AC50 [9]: 1.16 µM (active)
- IC50 [10]: > 40 µM (inactive)
- EC50 (Protein RecA): 13.2 µM (active)
- AC50 [11]: 4.56 µM (active)
- IC50 [12]: 3.16 µM (active)
- IC50 [13]: 0.931 µM (active)
- AC50 [14]: 8.98 µM (active)
- IC50 [15]: 0.004 µM (active)
- IC50 [16]: 0.409 µM (active)
- IC50 [17]: 0.0372 µM (active)
- AC50 (INS1): 2.97 µM (active)

SMILES: COc1cc(/C=C(\C#N)C(=O)Nc2ccc(C(=O)O)cc2)ccc1OC(=O)c1cccc(F)c1
- IC50 [18]: 5.86 µM (active)
- IC50 [19]: 12 µM (not active)
